From patent US5698528A, “Substance IT-62-B and medicinal composition containing the same” (Taiho Pharmaceutical Co., Ltd., priority 1994, dated 1997)
Converted amounts (≈) assume the structure as drawn.

Tests used:
[1] = system: murine leukemia P388 cells; experiment: Survival effect against murine leukemia P388 cells implanted intraperitoneally; type: in vivo, mouse (male CDF1); details: 0.25 mg/kg intraperitoneally, 1 day after i.p. implantation of 1×10^6 P388 cells, male CDF1 mice
Excerpt: B. Survival effect against murine leukemia P388 cells implanted intraperitoneally:
The antitumor activity of the compound according to the present invention was judged by the survival effect against murine leukemia (p388 cells). The three of Male CDF1 mice (aged 6 weeks) were used as test animals for an administering group and 10 mice for an untreating control group. Murine leukemia P388 cells (1×10^6 cells) were implanted intraperitoneally in all the mice. Upon elapsed time of 1 day (the first day) after the implantation, the substance IT-62-B dissolved in a 3.5% solution of dimethyl sulfoxide in physiological saline was administered intraperitoneally to the mice of the administering group at a dose of 0.25 mg/kg so as to observe survival days of the mice. […] [formula]

[2] = system: Enterococcus faecalis IFO 12968; experiment: Antibacterial MIC (agar dilution); type: cell-based; details: IFO12968, Muller-Hinton agar, 37° C., 18 hours, 10^6 cells/ml
Description: (§1) (1) Determination of antibacterial activities of the substance IT-62-B:
(§2) Minimum inhibitory concentrations (MICs) of the compound according to the present invention against various bacteria were determined in accordance with the MIC measurement method of Japan Society of Chemotherapy (see journal of Chemotherapy, Vol. 29, No. 1, pp. 76-79, 1981). More specifically, Muller-Hinton agar media (product of Difco Co.) containing the compound according to the present invention at various concentrations were used. The test organisms diluted to 10^6 cells/ml, respectively, were inoculated said test organisms having been grown on the same medium as described above.

[3] = system: Staphylococcus aureus (MRSA)70; experiment: Antibacterial MIC (agar dilution); type: cell-based; details: 18 h
Description: as §1, §2

[4] = system: Alcaligenes faecalis IAM 1015; experiment: Antibacterial MIC (agar dilution); type: cell-based; details: IAM1015, Muller-Hinton agar, 37° C., 18 hours, 10^6 cells/ml
Description: as §1, §2

[5] = system: Staphylococcus aureus Smith; experiment: Antibacterial MIC (agar dilution); type: cell-based; details: Muller-Hinton agar, 37° C., 18 hours, 10^6 cells/ml
Description: as §1, §2

[6] = system: Salmonella typhymurium G-46; experiment: Antibacterial MIC (agar dilution); type: cell-based; details: G46, Muller-Hinton agar, 37° C., 18 hours, 10^6 cells/ml
Description: as §1, §2

[7] = system: Bacillus cereus IFO 3001; experiment: Antibacterial MIC (agar dilution); type: cell-based; details: IFO3001, Muller-Hinton agar, 37° C., 18 hours, 10^6 cells/ml
Description: as §1, §2

[8] = system: Staphylococcus epidermidis ATCC 12228; experiment: Antibacterial MIC (agar dilution); type: cell-based; details: ATCC12228, Muller-Hinton agar, 37° C., 18 hours, 10^6 cells/ml
Description: as §1, §2

[9] = system: Bacillus subtilis ATCC 6633; experiment: Antibacterial MIC (agar dilution); type: cell-based; details: ATCC6633, Muller-Hinton agar, 37° C., 18 hours, 10^6 cells/ml
Description: as §1, §2

[10] = system: Proteus vulgaris IID OX-19; experiment: Antibacterial MIC (agar dilution); type: cell-based; details: IIDOX19, Muller-Hinton agar, 37° C., 18 hours, 10^6 cells/ml
Description: as §1, §2

[11] = system: Staphylococcus aureus (MRSA)92-1192; experiment: Antibacterial MIC (agar dilution); type: cell-based; details: 18 h
Description: as §1, §2

[12] = system: Escherichia coli NIHJ; experiment: Antibacterial MIC (agar dilution); type: cell-based; details: Muller-Hinton agar, 37° C., 18 hours, 10^6 cells/ml
Description: as §1, §2

[13] = system: Pseudomonas aeruginosa NCTC 10490; experiment: Antibacterial MIC (agar dilution); type: cell-based; details: NCTC10490, Muller-Hinton agar, 37° C., 18 hours, 10^6 cells/ml
Description: as §1, §2

[14] = system: Bacillus subtilis ATCC(rec^-); experiment: Antibacterial MIC (agar dilution); type: cell-based; details: Muller-Hinton agar, 37° C., 18 hours, 10^6 cells/ml
Description: as §1, §2

[15] = system: Micrococcus luteus ATCC 10240; experiment: Antibacterial MIC (agar dilution); type: cell-based; details: ATCC10240, Muller-Hinton agar, 37° C., 18 hours, 10^6 cells/ml
Description: as §1, §2

[16] = system: Micrococcus luteus ATCC 9341; experiment: Antibacterial MIC (agar dilution); type: cell-based; details: ATCC9341, Muller-Hinton agar, 37° C., 18 hours, 10^6 cells/ml
Description: as §1, §2

[17] = system: Serratia marcescens IFO 12648; experiment: Antibacterial MIC (agar dilution); type: cell-based; details: IFO12648, Muller-Hinton agar, 37° C., 18 hours, 10^6 cells/ml
Description: as §1, §2

[18] = system: Escherichia coli IAM 1268; experiment: Antibacterial MIC (agar dilution); type: cell-based; details: IAM1268, Muller-Hinton agar, 37° C., 18 hours, 10^6 cells/ml
Description: as §1, §2

[19] = system: Klebsiella pneumoniae ATCC 29665; experiment: Antibacterial MIC (agar dilution); type: cell-based; details: ATCC29665, Muller-Hinton agar, 37° C., 18 hours, 10^6 cells/ml
Description: as §1, §2

[20] = system: Bacillus subtilis ATCC(rec^+); experiment: Antibacterial MIC (agar dilution); type: cell-based; details: Muller-Hinton agar, 37° C., 18 hours, 10^6 cells/ml
Description: as §1, §2

[21] = system: KB cell line derived from human nasopharyngeal carcinoma; experiment: 50% inhibitory concentration against KB cell line (growth inhibition, trypan blue viable count); type: cell-based; details: 72 h, incubation for 3 days, 37° C., trypan blue dye exclusion
Description: A. Determination of 50% inhibitory concentration against the established culture cell line derived from human nasopharyngeal carcinoma:
A 50% inhibitory concentration (IC50) of the compound according to the present invention against an established culture cell line (KB cell line) derived from human nasopharyngeal carcinoma was determined. More specifically, the KB cell line (2×10^3 cells/ml of medium) was cultured in an Eagle's minimal essential medium supplemented with a 10% calf serum, and 3 ml of this culture medium was incubated in a plastic Petri dish to incubate it at 37° C. in a CO2 -incubator (5% CO2). After overnight incubation, the compound according to the present invention was added with the compound diluted from a concentration of 1 μg/ml to a concentration of 1×10^-6 μg/ml by 10-fold dilution.

SMILES: COc1cccc2c1C(=O)c1c(O)c3c(c(O)c1C2=O)CC(O)(C(C)=O)CC3OC1CC2C(OC(CC(C)O)OC(C)C3OC(C(C)CO)C(=O)N23)C(C)O1 (stereo not drawn) [IT-62-B]
- Percent increase in survival [1]: 119%
- MIC [2]: 50 µg/mL (≈ 65 µM)
- MIC [3]: 12.5 µg/mL (≈ 16.2 µM)
- MIC [4]: 12.5 µg/mL (≈ 16.2 µM)
- MIC [5]: 6.25 µg/mL (≈ 8.12 µM)
- MIC [6]: > 100 µg/mL
- MIC [7]: 12.5 µg/mL (≈ 16.2 µM)
- MIC [8]: 25 µg/mL (≈ 32.5 µM)
- MIC [9]: 3.13 µg/mL (≈ 4.07 µM)
- MIC [10]: > 100 µg/mL
- MIC [11]: 12.5 µg/mL (≈ 16.2 µM)
- MIC [12]: 100 µg/mL (≈ 130 µM)
- MIC [13]: > 100 µg/mL
- MIC [14]: 0.39 µg/mL (≈ 0.507 µM)
- MIC [15]: 1.56 µg/mL (≈ 2.03 µM)
- MIC [16]: 3.13 µg/mL (≈ 4.07 µM)
- MIC [17]: > 100 µg/mL
- MIC [18]: 50 µg/mL (≈ 65 µM)
- MIC [19]: > 100 µg/mL
- MIC [20]: 6.25 µg/mL (≈ 8.12 µM)
- IC50 [21]: 0.006 µg/mL (≈ 0.00779 µM)
